We go through 22 compounds from patent US11969476B2, “Antibody molecule-drug conjugates and uses thereof” (priority 2020, dated 2024).

In data set [1] the test system is P. aeruginosa BAA-2113. The arrangement: key: R = Resistant; S = Suspectible; I = Intermediate; NT = Note Tested. The conditions noted are these: strain BAA-2113, isolated from human sputum; cited from earlier work.
Data set [2] has as its system P. aeruginosa BAA-2114. The arrangement: key: R = Resistant; S = Suspectible; I = Intermediate; NT = Note Tested. The conditions noted are these: strain BAA-2114, isolated from human sputum; cited from earlier work.
The subject of data set [3] is P. aeruginosa BAA-2112. The arrangement: key: R = Resistant; S = Suspectible; I = Intermediate; NT = Note Tested. The settings on record: strain BAA-2112, isolated from human sputum; cited from earlier work.
The subject of data set [4] is P. aeruginosa BAA-2110. Details: key: R = Resistant; S = Suspectible; I = Intermediate; NT = Note Tested. The settings on record: strain BAA-2110, isolated from human sputum; cited from earlier work.
The subject of data set [5] is P. aeruginosa BAA-2108. The arrangement: key: R = Resistant; S = Suspectible; I = Intermediate; NT = Note Tested. The settings on record: strain BAA-2108, isolated from human sputum; cited from earlier work.
The subject of data set [6] is P. aeruginosa BAA-2109. The arrangement: key: R = Resistant; S = Suspectible; I = Intermediate; NT = Note Tested. The settings on record: strain BAA-2109, isolated from human sputum; cited from earlier work.
Data set [7] has as its system P. aeruginosa BAA-2111. The arrangement: key: R = Resistant; S = Suspectible; I = Intermediate; NT = Note Tested. The conditions noted are these: strain BAA-2111, isolated from human sputum; cited from earlier work.
Data set [8] is described as follows: in vitro. The settings on record: human, Cytotox CC50.
The nature of data set [9]: Cytotoxicity to mammalian cells. The settings on record: human, 293T cells.
For data set [10], the system named is 293T. The experiment in a line: Cytotoxicity to mammalian cells.
The conditions of data set [11]: LC-MS; 10% human serum (FIG. 8).
Method: Assessment of Serum Stability. […] Twenty μl of each test article was placed in a 2.0 ml round bottom microfuge tube. […] Assay tubes were placed at 37° C. in a rotating rack between time-points. […] Supernatant from each tube was collected and frozen at −20° C. for analysis. Samples were harvested and processed at various time-points up to 6 hours.

≈ marks a conversion by molar mass, not a printed value. Ends that are not written are not given here.

As for `NCC[C@H](O)C(=O)N[C@@H]1C[C@H](N)[C@@H](O[C@H]2O[C@H](CN)[C@@H](O)[C@H](O)[C@H]2O)[C@H](O)[C@H]1O[C@H]1O[C@H](CO)[C@@H](O)[C@H](N)[C@H]1O` [Amikacin], the antibiotic resistance phenotype entry in data set [1], in [2], in [3], in data set [4], in [5] and in data set [6] was “S” each time. Besides, in data set [7], the antibiotic resistance phenotype entry was “S”.

Take `CC1(C)S[C@@H]2[C@H](NC(=O)[C@H](N)c3ccccc3)C(=O)N2[C@H]1C(=O)O` [Ampicillin]: the antibiotic resistance phenotype entry in data set [1], in data set [2], in data set [3], in data set [4], in data set [5] and in [6] was “R” in each case. Moreover, the antibiotic resistance phenotype entry in [7] was “R”.

Regarding `CC(=O)OCC1=C(C(=O)O)N2C(=O)[C@@H](NC(=O)Cc3cccs3)[C@H]2SC1` [Cefalotin], the antibiotic resistance phenotype entry in data set [1], in data set [2], in data set [3], in data set [5], in data set [6] and in data set [7] was “R” each time.

Regarding `Cc1nnc(SCC2=C(C(=O)O)N3C(=O)[C@@H](NC(=O)Cn4cnnn4)[C@H]3SC2)s1` [Cefazolin], the antibiotic resistance phenotype result in [1], in [2], in [3], in data set [4], in data set [6] and in data set [7] was “R” in each case.

On to `CO/N=C(\C(=O)N[C@@H]1C(=O)N2C(C(=O)O)=C(COC(C)=O)CS[C@H]12)c1csc(N)n1` [Cefotaxime], for which the antibiotic resistance phenotype entry in data set [1], in data set [2], in [3], in [4], in data set [5] and in data set [6] was “R” in each case. Besides, the antibiotic resistance phenotype entry in data set [7] was “R”.

For `CO[C@@]1(NC(=O)Cc2cccs2)C(=O)N2C(C(=O)O)=C(COC(N)=O)CS[C@@H]21` [Cefoxitin], the antibiotic resistance phenotype result in data set [1], in data set [2], in data set [3], in [4], in data set [5] and in [6] was “R” in each case. Also, in data set [7], the antibiotic resistance phenotype entry was “R”.

Consider `CO/N=C(\C(=O)N[C@@H]1C(=O)N2C(C(=O)O)=C(CSc3nc(=O)c(=O)[nH]n3C)CS[C@H]12)c1csc(N)n1` [Ceftriaxone], for which the antibiotic resistance phenotype result in data set [1], in data set [2], in data set [3], in [6] and in [7] was “R” in each case.

For the compound `CO/N=C(\C(=O)N[C@@H]1C(=O)N2C(C(=O)OC(C)OC(C)=O)=C(COC(N)=O)CS[C@H]12)c1ccco1` (some centres unmarked) [Cefuroxime Axetil], the antibiotic resistance phenotype result in data set [1], in data set [2], in [3], in data set [5], in data set [6] and in data set [7] was “R” in each case.

On to `CO/N=C(\C(=O)N[C@@H]1C(=O)N2C(C(=O)O)=C(COC(N)=O)CS[C@H]12)c1ccco1` [Cefuroxime], for which the antibiotic resistance phenotype entry in data set [1], in data set [2], in [3], in data set [5], in [6] and in data set [7] was “R” throughout.

With `O=C(O)c1cn(C2CC2)c2cc(N3CCNCC3)c(F)cc2c1=O` [Ciprofloxacin], the antibiotic resistance phenotype entry is given as “S” in data set [1]; “R” in data set [2]; “S” in [3]; “S” in [4]; “S” in data set [5]; “S” in [6]. Moreover, in data set [7], the antibiotic resistance phenotype result is recorded as “S”.

For `CC[C@H](C)[C@H](NC(=O)[C@H](CCCCN)NC(=O)[C@H](CCC(=O)O)NC(=O)[C@H](CCCCN)NC(=O)[C@H](CO)NC(=O)[C@H](CCCCN)NC(=O)[C@H](CCCNC(=N)N)NC(=O)[C@H](Cc1ccccc1)NC(=O)[C@H](Cc1ccccc1)NC(=O)[C@H](CC(=O)O)NC(=O)CNC(=O)[C@H](CC(C)C)NC(=O)[C@H](CC(C)C)NC(=O)CNC(=O)CNC(=O)CN)C(=O)NCC(=O)N[C@@H](CCCCN)C(=O)N[C@@H](CCC(=O)O)C(=O)N[C@@H](Cc1ccccc1)C(=O)N[C@@H](CCCCN)C(=O)N[C@@H](CCCNC(=N)N)C(=O)N[C@H](C(=O)N[C@H](C(=O)N[C@@H](CCC(N)=O)C(=O)N[C@@H](CCCNC(=N)N)C(=O)N[C@H](C(=O)N[C@@H](CCCCN)C(=O)N[C@@H](CC(=O)O)C(=O)N[C@@H](Cc1ccccc1)C(=O)N[C@@H](CC(C)C)C(=O)N[C@@H](CCCNC(=N)N)C(=O)N[C@@H](CC(N)=O)C(=O)N[C@@H](CC(C)C)C(=O)N[C@H](C(=O)N1CCC[C@H]1C(=O)N[C@@H](CCCNC(=N)N)C(=O)N[C@H](C(=O)N[C@@H](CCC(=O)O)C(=O)N[C@@H](CO)C(=O)O)[C@@H](C)O)C(C)C)[C@@H](C)CC)C(C)C)[C@@H](C)CC` [Peptide P265], the CC50 in data set [8] was found to be 90 µg/mL (≈ 19.3 µM).

Regarding `CN(C)c1cc(NC(=O)CNC(C)(C)C)c(O)c2c1C[C@H]1C[C@H]3[C@H](N(C)C)C(O)=C(C(N)=O)C(=O)[C@@]3(O)C(O)=C1C2=O` [Tigecycline], the antibiotic resistance phenotype entry in [1], in data set [2], in [3], in data set [4], in [5] and in data set [6] was “R” throughout. Moreover, the antibiotic resistance phenotype entry in data set [7] is “R”.

For the compound `NC[C@H]1O[C@H](O[C@H]2[C@H](O)[C@@H](O[C@H]3O[C@H](CO)[C@@H](O)[C@H](N)[C@H]3O)[C@H](N)C[C@@H]2N)[C@H](N)C[C@@H]1O` [Tobramycin], the antibiotic resistance phenotype result in data set [1], in data set [2], in data set [3], in data set [4], in data set [6] and in data set [7] was “S” throughout.

With Amoxicillin/Clavulanic Acid, the antibiotic resistance phenotype entry in [1], in [2], in data set [3], in data set [5], in data set [6] and in data set [7] was “R” in each case.

As to “GGGGIGKFLKKAKKFGKAFVKILKK [Peptide P261]”, in data set [9], half-maximal cytotoxicity (CC50) was put at 250 µg/mL.

“GGGGLRKRLRKFRNKIKEKLKKIGQKIQGLLPKLA [Peptide P271]” registered a CC50 in data set [9] (Cytotox CC50, concentration at which 50% cytotoxicity of mammalian cells is observed) of 250 µg/mL.

As to “GGGGRFKRFRKKFKKLFKKLSPVIPLLHLG [Peptide P267]”, in data set [8], the midpoint of cytotoxicity, the CC50, lay at 70 µg/mL.

In turn, “GGGKFFRKLKKSVKKRAKEFFKKPRVIGVSIPF [Peptide P297]” had a CC50 in data set [9] of 780 µg/mL. Besides, in data set [10], the “cytotoxicity to 293T relative to the MIC” value is given as ~200 fold. The “half-life in the presence of serum” value in [11] is ~20 min.

Take “GGGKRFKKFFKKLKNSVKKRAKKFFKKPRVIGVSIPF [Peptide P296]”: in [9], it took 400 µg/mL to reach half-maximal cytotoxicity (CC50).

Consider Gentamicin, for which the antibiotic resistance phenotype result is “S” in data set [1]; “S” in data set [2]; “S” in data set [3]; “I” in data set [4]; “I” in data set [5]; “S” in data set [6]. Besides, the antibiotic resistance phenotype result in [7] is “S”.

Regarding Piperacillin/Tazobactam, the antibiotic resistance phenotype entry in data set [1], in data set [2], in [3], in data set [6] and in data set [7] was “S” each time.

Consider Trimethoprim/Sulfamethoxazole, for which the antibiotic resistance phenotype entry in data set [1], in [2], in data set [3], in data set [4], in data set [5] and in data set [6] was “R” throughout. Moreover, the antibiotic resistance phenotype entry in data set [7] is listed as “R”.

The term CC50 denotes the concentration giving 50% cytotoxicity.
